# Results published in publication PMC5790609 (Journal of neuroimmune pharmacology : the official journal …, 2017).
# What was measured:
# [1] = system: TSPO (C/T rs6971 genotype); test: [3H]-DPA-713 dissociation kinetics, platelet lysates, C/T genotype; type: binding, human; settings: for effect on rate of dissociation of [3H]-DPA-713 vs. excess DPA-713: PK11195 5 μM, cholesterol 1.2 μM
# [2] = molecular target: TSPO (T/T rs6971 genotype) (Homo sapiens, UniProt P30536); test: [3H]-DPA-713 dissociation kinetics, platelet lysates, T/T genotype; type: binding; settings: PK11195 5 μM, cholesterol 1.2 μM
# Chain of TSPO (T/T rs6971 genotype) (P30536 2-169): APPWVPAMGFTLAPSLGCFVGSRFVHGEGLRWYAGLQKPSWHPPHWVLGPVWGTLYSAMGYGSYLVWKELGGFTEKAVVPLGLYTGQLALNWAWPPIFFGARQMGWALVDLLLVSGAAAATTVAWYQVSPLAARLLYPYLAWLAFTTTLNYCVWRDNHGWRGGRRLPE
# [3] = ref Vivash and O'Brien 2016; cited from earlier work
# [4] = molecular target: TSPO (C/C rs6971 genotype) (Homo sapiens, UniProt P30536); test: [3H]-DPA-713 dissociation kinetics, platelet lysates, C/C genotype; type: binding; settings: PK11195 5 μM, cholesterol 1.2 μM
# Chain of TSPO (C/C rs6971 genotype) (P30536 whole entry): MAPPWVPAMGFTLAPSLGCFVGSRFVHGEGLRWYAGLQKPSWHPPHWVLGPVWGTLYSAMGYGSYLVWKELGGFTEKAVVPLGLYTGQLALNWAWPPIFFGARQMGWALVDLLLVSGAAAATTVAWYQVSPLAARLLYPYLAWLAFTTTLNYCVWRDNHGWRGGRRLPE
Structure (SMILES),dissociation rates of [3H]-DPA-713 with 2 vs. 12 μM DPA-713 [1],effect on rate of dissociation of [3H]-DPA-713 vs. excess DPA-713 [2],non-specific plasma protein binding [3],effect on rate of dissociation of [3H]-DPA-713 vs. excess DPA-713 [1],effect on rate of dissociation of [3H]-DPA-713 vs. excess DPA-713 [4]
CCN(CC)C(=O)Cc1c(-c2ccc(OC)cc2)nn2c(C)cc(C)nc12 [DPA-713],the same,–,–,–,–
CCC(C)N(C)C(=O)c1cc2ccccc2c(-c2ccccc2Cl)n1 (centres unmarked) [PK11195],–,accelerated,high,the same,the same
CC(C)CCC[C@@H](C)[C@H]1CC[C@H]2[C@@H]3CC=C4C[C@@H](O)CC[C@]4(C)[C@H]3CC[C@]12C [cholesterol],–,accelerated,–,the same,the same
